# Reference: ChEMBL document CHEMBL5154903 (J Med Chem, 2022)
# Active and inactive are the calls of the source. No cut-off for these calls is given here.
# Assays:
# [1] = Microsomal stability in human liver microsomes assessed as intrinsic clearance at 1 uM incubated for 60 mins by HPLC-MS/MS analysis; type: ADME, Microsome; settings: read-out: CLH
# CYP2D6 = CYP2D6 (Homo sapiens, UniProt P10635); assay: Inhibition of CYP2D6 in human liver microsomes at 10 uM incubated for 45 mins by LC-MS/MS analysis relative to control; type: ADME, Microsome
# Chain of CYP2D6 (P10635 whole entry): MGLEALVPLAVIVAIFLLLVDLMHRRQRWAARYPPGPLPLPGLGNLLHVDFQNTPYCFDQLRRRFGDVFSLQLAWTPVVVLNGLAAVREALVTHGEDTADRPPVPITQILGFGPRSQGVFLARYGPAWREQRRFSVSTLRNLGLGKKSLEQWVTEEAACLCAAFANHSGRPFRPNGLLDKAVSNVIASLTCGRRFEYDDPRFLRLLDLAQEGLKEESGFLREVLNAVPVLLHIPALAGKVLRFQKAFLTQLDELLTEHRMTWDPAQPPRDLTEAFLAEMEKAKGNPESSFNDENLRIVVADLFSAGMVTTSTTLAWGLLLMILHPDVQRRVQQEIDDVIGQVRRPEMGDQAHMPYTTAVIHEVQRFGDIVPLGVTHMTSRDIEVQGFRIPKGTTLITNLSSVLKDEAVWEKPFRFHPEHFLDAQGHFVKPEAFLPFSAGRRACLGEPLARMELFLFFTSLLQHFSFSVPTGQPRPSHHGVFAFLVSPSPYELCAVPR
# HFL1 = assay: Cytotoxicity against human HFL1 cells assessed as reduction in cell viability at 10 uM incubated for 72 to 96 hrs by Celltiter-Glo assay; type: toxicity, cell-based; settings: hfl1, 10 µM, time 72-96 hrs
# HepG2 [2] = assay: Inhibition of lipid metabolism in human HepG2 cells assessed as increase in p-ACC/ACC ratio at 10 uM incubated for 24 hrs by Western blot analysis; type: functional, cell-based
# HepG2 [3] = assay: Inhibition of lipid metabolism in human HepG2 cells assessed as increase in p-AMPK/AMPK ratio at 10 uM incubated for 24 hrs by Western blot analysis; type: functional, cell-based
# [4] = Half life in overnight fasted Sprague-Dawley rat at 5 mg/kg, po measured upto 24 hrs; type: ADME, organism-based; settings: in vivo
# HepG2 [5] = assay: Inhibition of lipid metabolism in human HepG2 assessed as reduction in intracellular total cholesterol level at 1 to 10 uM incubated for 24 hrs; type: functional, cell-based; settings: dose 1-10 µM
# HepG2 [6] = assay: Induction of mitochondrial basal respiration in human HepG2 cells assessed as increase in oxygen consumption rate at 10 uM measured after 24 hrs by Seahorse XFe96 flux analyzer; type: functional, cell-based
# CYP2C9 = CYP2C9 (Homo sapiens, UniProt P11712); assay: Inhibition of CYP2C9 in human liver microsomes at 10 uM incubated for 10 mins by LC-MS/MS analysis relative to control; type: ADME, Microsome
# Chain of CYP2C9 (P11712 whole entry): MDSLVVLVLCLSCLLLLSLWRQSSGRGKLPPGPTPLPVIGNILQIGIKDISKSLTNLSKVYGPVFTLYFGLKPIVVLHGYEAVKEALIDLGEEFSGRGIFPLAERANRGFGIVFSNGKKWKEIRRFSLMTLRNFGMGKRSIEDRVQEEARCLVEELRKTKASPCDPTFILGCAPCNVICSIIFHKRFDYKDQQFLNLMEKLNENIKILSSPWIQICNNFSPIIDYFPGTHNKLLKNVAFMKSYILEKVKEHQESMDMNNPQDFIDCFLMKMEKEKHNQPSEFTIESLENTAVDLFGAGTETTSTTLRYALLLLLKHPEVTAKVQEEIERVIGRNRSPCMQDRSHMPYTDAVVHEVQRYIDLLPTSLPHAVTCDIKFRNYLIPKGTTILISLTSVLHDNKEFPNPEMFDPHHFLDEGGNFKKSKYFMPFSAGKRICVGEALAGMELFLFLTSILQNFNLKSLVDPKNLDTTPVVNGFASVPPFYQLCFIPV
# CYP2C19 = CYP2C19 (Homo sapiens, UniProt P33261); assay: Inhibition of CYP2C19 in human liver microsomes at 10 uM incubated for 45 mins by LC-MS/MS analysis relative to control; type: ADME, Microsome
# Chain of CYP2C19 (P33261 whole entry, the tested form may be a part): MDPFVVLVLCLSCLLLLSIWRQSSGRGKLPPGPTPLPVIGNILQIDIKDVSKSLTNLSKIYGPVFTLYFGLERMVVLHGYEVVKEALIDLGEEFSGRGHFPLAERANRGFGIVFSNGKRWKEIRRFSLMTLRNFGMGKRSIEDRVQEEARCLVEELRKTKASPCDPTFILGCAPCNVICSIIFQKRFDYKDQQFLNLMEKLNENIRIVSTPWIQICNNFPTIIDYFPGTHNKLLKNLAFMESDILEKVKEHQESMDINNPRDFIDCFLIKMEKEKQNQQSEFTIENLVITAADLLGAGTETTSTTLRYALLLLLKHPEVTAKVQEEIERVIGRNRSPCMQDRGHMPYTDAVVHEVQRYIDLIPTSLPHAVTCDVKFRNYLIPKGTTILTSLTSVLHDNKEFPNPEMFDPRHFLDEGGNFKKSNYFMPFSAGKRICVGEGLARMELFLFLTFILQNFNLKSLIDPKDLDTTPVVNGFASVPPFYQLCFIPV
# [7] = molecular target: T1, Thyroid hormone receptor beta (Homo sapiens, UniProt P10828); assay: Agonist activity at human TR beta LBD (202 to 461 residues) expressed in Escherichia coli BL21 (DE3) cells assessed as induction of N-terminal biotinylated coactivator SRC2-3 peptide recruitment by alphascreen assay
# T1 sequence (P10828 whole entry): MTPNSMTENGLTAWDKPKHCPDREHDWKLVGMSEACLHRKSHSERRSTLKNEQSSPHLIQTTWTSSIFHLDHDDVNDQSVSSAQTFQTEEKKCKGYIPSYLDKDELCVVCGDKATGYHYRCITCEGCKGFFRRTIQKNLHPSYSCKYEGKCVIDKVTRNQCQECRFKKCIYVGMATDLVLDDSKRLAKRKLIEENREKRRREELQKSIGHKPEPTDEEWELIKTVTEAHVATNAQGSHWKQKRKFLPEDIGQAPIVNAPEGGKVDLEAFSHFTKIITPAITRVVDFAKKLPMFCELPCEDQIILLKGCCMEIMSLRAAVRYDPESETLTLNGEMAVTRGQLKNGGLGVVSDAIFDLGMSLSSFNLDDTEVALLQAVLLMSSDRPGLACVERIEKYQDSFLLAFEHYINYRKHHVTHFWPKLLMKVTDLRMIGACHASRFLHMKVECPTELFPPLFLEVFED
# [8] = molecular target: T2, Thyroid hormone receptor alpha (Homo sapiens) (UniProt P10827); settings: filed as agonist, dose 10.0 µM
# T2 sequence (whole entry): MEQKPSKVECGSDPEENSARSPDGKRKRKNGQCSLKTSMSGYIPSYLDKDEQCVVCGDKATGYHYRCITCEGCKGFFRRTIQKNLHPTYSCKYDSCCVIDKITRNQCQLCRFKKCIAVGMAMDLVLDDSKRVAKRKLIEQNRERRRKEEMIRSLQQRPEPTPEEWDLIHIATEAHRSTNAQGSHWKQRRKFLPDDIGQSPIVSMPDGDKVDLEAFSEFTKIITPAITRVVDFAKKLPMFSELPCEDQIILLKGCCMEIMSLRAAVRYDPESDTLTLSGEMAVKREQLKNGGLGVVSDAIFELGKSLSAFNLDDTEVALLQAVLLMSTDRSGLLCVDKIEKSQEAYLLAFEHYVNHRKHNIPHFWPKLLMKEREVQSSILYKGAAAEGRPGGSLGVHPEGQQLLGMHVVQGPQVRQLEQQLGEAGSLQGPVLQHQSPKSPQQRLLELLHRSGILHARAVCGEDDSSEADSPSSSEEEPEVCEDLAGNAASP
# HepG2 [9] = assay: Induction of mitochondrial uncoupled respiration in human HepG2 cells assessed as increase in oxygen consumption rate at 10 uM measured after 24 hrs by Seahorse XFe96 flux analyzer; type: functional, cell-based
# CYP2C8 = CYP2C8 (Homo sapiens, UniProt P10632); assay: Inhibition of CYP2C8 in human liver microsomes at 10 uM incubated for 20 mins by LC-MS/MS analysis relative to control; type: ADME, Microsome
# Chain of CYP2C8 (P10632 whole entry): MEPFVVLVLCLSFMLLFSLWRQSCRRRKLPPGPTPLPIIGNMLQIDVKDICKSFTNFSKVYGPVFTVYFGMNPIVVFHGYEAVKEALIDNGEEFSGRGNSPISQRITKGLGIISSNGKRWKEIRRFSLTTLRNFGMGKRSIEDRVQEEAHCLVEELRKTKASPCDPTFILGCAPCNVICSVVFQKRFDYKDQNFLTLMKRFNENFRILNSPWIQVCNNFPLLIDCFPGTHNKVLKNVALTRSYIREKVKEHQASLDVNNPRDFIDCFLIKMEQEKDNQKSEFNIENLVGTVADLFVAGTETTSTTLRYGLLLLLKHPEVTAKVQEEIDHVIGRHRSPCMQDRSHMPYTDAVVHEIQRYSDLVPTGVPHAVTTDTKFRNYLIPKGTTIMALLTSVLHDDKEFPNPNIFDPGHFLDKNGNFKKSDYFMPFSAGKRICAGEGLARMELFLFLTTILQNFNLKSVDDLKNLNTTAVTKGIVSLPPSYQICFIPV
# [10] = Oral bioavailability in overnight fasted Sprague-Dawley rat at 5 mg/kg measured upto 24 hrs; type: ADME, organism-based; settings: in vivo
# Egl nine homolog 1 = Egl nine homolog 1 (Homo sapiens, UniProt Q9GZT9); assay: Inhibition of PHD2 (unknown origin) at 5 uM incubated for 15 mins by competitive fluorescence polarization assay relative to control
# Chain of Egl nine homolog 1 (Q9GZT9 2-426 limits assumed): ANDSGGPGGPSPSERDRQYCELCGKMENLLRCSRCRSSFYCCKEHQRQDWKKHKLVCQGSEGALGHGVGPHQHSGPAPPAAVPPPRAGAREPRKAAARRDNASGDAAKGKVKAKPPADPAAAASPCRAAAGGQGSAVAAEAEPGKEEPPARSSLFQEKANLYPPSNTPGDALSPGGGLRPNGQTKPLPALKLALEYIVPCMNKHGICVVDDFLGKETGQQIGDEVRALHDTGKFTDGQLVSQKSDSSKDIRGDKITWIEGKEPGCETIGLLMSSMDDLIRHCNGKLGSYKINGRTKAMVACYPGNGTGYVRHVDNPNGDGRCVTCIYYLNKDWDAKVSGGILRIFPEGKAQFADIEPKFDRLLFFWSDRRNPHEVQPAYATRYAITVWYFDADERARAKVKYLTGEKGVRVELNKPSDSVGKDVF
# MDA-MB-231 = assay: Cytotoxicity against human MDA-MB-231 cells assessed as reduction in cell viability at 10 uM incubated for 72 to 96 hrs by Celltiter-Glo assay; type: toxicity, cell-based; settings: mda-mb-231, 10 µM, time 72-96 hrs
# HepG2 [11] = assay: Inhibition of lipid metabolism in human HepG2 assessed as reduction in intracellular tryglyceride level at 1 to 10 uM incubated for 24 hrs; type: functional, cell-based; settings: dose 1-10 µM
# CYP2B6 = CYP2B6 (Homo sapiens, UniProt P20813); assay: Inhibition of CYP2B6 in human liver microsomes at 10 uM incubated for 10 mins by LC-MS/MS analysis relative to control; type: ADME, Microsome
# Chain of CYP2B6 (P20813 whole entry): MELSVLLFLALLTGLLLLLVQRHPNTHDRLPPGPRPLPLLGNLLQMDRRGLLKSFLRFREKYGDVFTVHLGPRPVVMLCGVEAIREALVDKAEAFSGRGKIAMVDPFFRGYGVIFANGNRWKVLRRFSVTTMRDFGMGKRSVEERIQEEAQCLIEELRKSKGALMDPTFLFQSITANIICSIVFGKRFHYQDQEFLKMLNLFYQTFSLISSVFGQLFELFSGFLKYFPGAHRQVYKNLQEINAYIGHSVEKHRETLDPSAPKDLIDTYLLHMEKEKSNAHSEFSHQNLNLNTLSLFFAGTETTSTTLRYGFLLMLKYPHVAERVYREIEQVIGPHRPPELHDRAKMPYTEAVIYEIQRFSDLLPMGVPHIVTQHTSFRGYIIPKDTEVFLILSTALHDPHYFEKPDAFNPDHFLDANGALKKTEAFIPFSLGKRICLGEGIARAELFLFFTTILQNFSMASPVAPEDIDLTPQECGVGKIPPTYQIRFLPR
# HepG2 [12] = assay: Inhibition of lipid metabolism in human HepG2 cells assessed as reduction in total lipid accumulation at 10 uM incubated for 24 hrs by oil red O staining based inverted microscopic analysis; type: functional, cell-based
# A549 = assay: Cytotoxicity against human A549 cells assessed as reduction in cell viability at 10 uM incubated for 72 to 96 hrs by Celltiter-Glo assay; type: toxicity, cell-based; settings: a549, 10 µM, time 72-96 hrs
# [13] = Half life in overnight fasted Sprague-Dawley rat at 5 mg/kg, iv measured upto 24 hrs; type: ADME, organism-based; settings: in vivo
# Hepatocyte = assay: Inhibition of lipid metabolism in mouse primary hepatocytes assessed as reduction in intracellular total cholesterol level at 10 uM incubated for 24 hrs; type: functional, cell-based
# [14] = Cmax in overnight fasted Sprague-Dawley rat at 5 mg/kg, po measured upto 24 hrs; type: ADME, organism-based; parameters: time < 24 hrs, dose 5 mg/kg, route po; settings: in vivo
# [15] = AUC (0 to infinity) in overnight fasted Sprague-Dawley rat at 5 mg/kg, iv measured upto 24 hrs; type: ADME, organism-based; parameters: dose 5 mg/kg, time < 24 hrs, route iv; settings: in vivo
# CYP1A2 = CYP1A2 (Homo sapiens, UniProt P05177); assay: Inhibition of CYP1A2 in human liver microsomes at 10 uM incubated for 10 mins by LC-MS/MS analysis relative to control; type: ADME, Microsome
# Chain of CYP1A2 (P05177 whole entry): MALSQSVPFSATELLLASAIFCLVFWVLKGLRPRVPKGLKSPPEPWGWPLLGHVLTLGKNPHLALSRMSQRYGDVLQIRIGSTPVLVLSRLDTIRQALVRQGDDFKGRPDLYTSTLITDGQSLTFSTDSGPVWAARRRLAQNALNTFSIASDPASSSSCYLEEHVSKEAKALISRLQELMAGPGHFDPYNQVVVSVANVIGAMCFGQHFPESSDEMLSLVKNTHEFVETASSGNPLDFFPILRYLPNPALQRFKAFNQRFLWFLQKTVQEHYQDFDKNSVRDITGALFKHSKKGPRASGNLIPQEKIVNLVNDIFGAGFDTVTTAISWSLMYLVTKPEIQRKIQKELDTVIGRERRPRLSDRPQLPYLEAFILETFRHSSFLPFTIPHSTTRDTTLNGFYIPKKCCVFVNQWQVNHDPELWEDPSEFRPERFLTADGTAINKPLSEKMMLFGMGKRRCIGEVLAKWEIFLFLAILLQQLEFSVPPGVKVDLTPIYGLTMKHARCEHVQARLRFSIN
# [16] = Volume of distribution at steady state in overnight fasted Sprague-Dawley rat at 5 mg/kg, iv measured upto 24 hrs; type: ADME, organism-based; settings: in vivo, read-out: Vdss
structure (smiles),measurement,setting,value
COc1cc(F)cc(C(=O)c2cc(C)c(Oc3ccc4c(O)c(C(=O)NCC(=O)O)nc(OC)c4c3)c(C)c2)c1,CLint scaled at 1 µM,[1],< 14.5 mL/min/kg
same,"inhibition at 0.75 h, 10 µM",CYP2D6,-11.3%
same,Activity,HFL1,Non-Toxic
same,inhibition,HepG2 [2],Active
same,inhibition,HepG2 [3],Active
same,half-life,[4],2.58 h
same,inhibition,HepG2 [5],Active
same,Activity,HepG2 [6],Active
same,"inhibition at 10 min, 10 µM",CYP2C9,18.4%
same,"inhibition at 0.75 h, 10 µM",CYP2C19,12%
same,EC50,[7],21 nM
same,ΔTm,[8],0.1 °C
same,Activity,HepG2 [9],Active
same,"inhibition at 20 min, 10 µM",CYP2C8,26.3%
same,bioavailability,[10],57.3%
same,inhibition,Egl nine homolog 1,4.8%
same,Activity,MDA-MB-231,Non-Toxic
same,inhibition,HepG2 [11],Active
same,"inhibition at 10 min, 10 µM",CYP2B6,15.2%
same,inhibition,HepG2 [12],Active
same,Activity,A549,Non-Toxic
same,half-life,[13],1.8 h
same,inhibition,Hepatocyte,Active
same,Cmax,[14],1450 ng/mL
same,AUC(0-inf),[15],10900 ng·h/mL
same,"inhibition at 10 min, 10 µM",CYP1A2,1.67%
same,Vd,[16],0.72 L/kg
